Data as given in PubChem BioAssay AID1259407 (Chemical Carcinogenesis Research Information System (CCRIS), 2018).
The source made the active and inactive calls. The rule behind the calls is not given here.

System: CCRIS mutagenicity, Ames/micronucleus/aberration tests
Experiment: CCRIS mutagenicity studies

## ClCCl
End Point: IN VITRO CHROMOSOMAL ABERRATIONS, Test System: CHO CELLS, Metabolic Activation: NONE
  mutagenic call: inactive; negative
End Point: IN VITRO CHROMOSOMAL ABERRATIONS, Test System: CHO CELLS, Metabolic Activation: RAT, LIVER, S-9, AROCLOR 1254
  mutagenic call: inactive; negative
Test System: AMES SALMONELLA TYPHIMURIUM, Strain/Indicator: NG54 (GSH), Metabolic Activation: GLUTATHIONE
  mutagenic call: active; positive
Test System: AMES SALMONELLA TYPHIMURIUM, Strain/Indicator: NG54 (GSH), Metabolic Activation: NONE
  mutagenic call: active; positive
Test System: AMES SALMONELLA TYPHIMURIUM, Strain/Indicator: NG54 (GSH), Metabolic Activation: RAT, LIVER, S-9, AROCLOR 1254
  mutagenic call: active; positive
Test System: AMES SALMONELLA TYPHIMURIUM, Strain/Indicator: NG54 (GSH), Metabolic Activation: RAT, LIVER, S-9, AROCLOR 1254, GLUTATHIONE
  mutagenic call: active; positive
Test System: AMES SALMONELLA TYPHIMURIUM, Strain/Indicator: NG-11, Metabolic Activation: GLUTATHIONE, Method: DESICCATOR
  mutagenic call: active; positive
Test System: AMES SALMONELLA TYPHIMURIUM, Strain/Indicator: NG-11, Metabolic Activation: NONE, Method: DESICCATOR
  mutagenic call: active; positive
Test System: AMES SALMONELLA TYPHIMURIUM, Strain/Indicator: RSJ100, Metabolic Activation: NONE, Method: STANDARD PLATE
  mutagenic call: active; positive
Test System: AMES SALMONELLA TYPHIMURIUM, Strain/Indicator: TA97, Metabolic Activation: NONE, Method: STANDARD PLATE
  mutagenic call: active; positive
Test System: AMES SALMONELLA TYPHIMURIUM, Strain/Indicator: TA97, Metabolic Activation: RAT, LIVER, S-9, AROCLOR 1254, Method: STANDARD PLATE
  mutagenic call: active; positive
Test System: AMES SALMONELLA TYPHIMURIUM, Strain/Indicator: TA98, Metabolic Activation: NONE, Method: GAS EXPOSURE
  mutagenic call: active; positive
Test System: AMES SALMONELLA TYPHIMURIUM, Strain/Indicator: TA98, Metabolic Activation: NONE, Method: STANDARD PLATE
  mutagenic call: inactive; negative
Test System: AMES SALMONELLA TYPHIMURIUM, Strain/Indicator: TA98, Metabolic Activation: RAT, LIVER, S-9, AROCLOR 1254, Method: STANDARD PLATE
  mutagenic call: active; positive
Test System: AMES SALMONELLA TYPHIMURIUM, Strain/Indicator: TA98, Metabolic Activation: RAT, LIVER, S-9, PHENOBARBITAL AND BETA-NAPHTHOFLAVONE, Method: GAS EXPOSURE
  mutagenic call: active; positive
Test System: AMES SALMONELLA TYPHIMURIUM, Strain/Indicator: TA98, Metabolic Activation: RAT, LIVER, S-9, PHENOBARBITAL, Method: DESICCATOR
  mutagenic call: active; positive
Test System: AMES SALMONELLA TYPHIMURIUM, Strain/Indicator: TA100, Metabolic Activation: GLUTATHIONE
  mutagenic call: active; positive
Test System: AMES SALMONELLA TYPHIMURIUM, Strain/Indicator: TA100, Metabolic Activation: GLUTATHIONE, Method: DESICCATOR
  mutagenic call: active; positive
Test System: AMES SALMONELLA TYPHIMURIUM, Strain/Indicator: TA100, Metabolic Activation: NONE
  mutagenic call: active; positive
Test System: AMES SALMONELLA TYPHIMURIUM, Strain/Indicator: TA100, Metabolic Activation: NONE, Method: DESICCATOR
  mutagenic call: active; positive
Test System: AMES SALMONELLA TYPHIMURIUM, Strain/Indicator: TA100, Metabolic Activation: NONE, Method: GAS EXPOSURE
  mutagenic call: active; positive
Test System: AMES SALMONELLA TYPHIMURIUM, Strain/Indicator: TA100, Metabolic Activation: RAT, LIVER, MICROSOMES, AROCLOR 1254
  mutagenic call: active; positive
Test System: AMES SALMONELLA TYPHIMURIUM, Strain/Indicator: TA100, Metabolic Activation: RAT, LIVER, S-9, AROCLOR 1254
  mutagenic call: active; positive
Test System: AMES SALMONELLA TYPHIMURIUM, Strain/Indicator: TA100, Metabolic Activation: RAT, LIVER, S-9, AROCLOR 1254, GLUTATHIONE
  mutagenic call: active; positive
Test System: AMES SALMONELLA TYPHIMURIUM, Strain/Indicator: TA100, Metabolic Activation: RAT, LIVER, S-9, AROCLOR 1254, Method: STANDARD PLATE
  mutagenic call: active; positive
Test System: AMES SALMONELLA TYPHIMURIUM, Strain/Indicator: TA100, Metabolic Activation: RAT, LIVER, S-9, PHENOBARBITAL AND BETA-NAPHTHOFLAVONE, Method: GAS EXPOSURE
  mutagenic call: active; positive
Test System: AMES SALMONELLA TYPHIMURIUM, Strain/Indicator: TA100, Metabolic Activation: RAT, LIVER, S-9, PHENOBARBITAL, Method: DESICCATOR
  mutagenic call: active; positive
Test System: AMES SALMONELLA TYPHIMURIUM, Strain/Indicator: TA100, Metabolic Activation: RAT, LIVER, S-100, AROCLOR 1254
  mutagenic call: active; positive
Test System: AMES SALMONELLA TYPHIMURIUM, Strain/Indicator: TA102, Metabolic Activation: NONE, Method: STANDARD PLATE
  mutagenic call: inactive; negative
Test System: AMES SALMONELLA TYPHIMURIUM, Strain/Indicator: TA104, Metabolic Activation: NONE, Method: STANDARD PLATE
  mutagenic call: active; positive
Test System: AMES SALMONELLA TYPHIMURIUM, Strain/Indicator: TA104, Metabolic Activation: RAT, LIVER, S-9, AROCLOR 1254, Method: STANDARD PLATE
  mutagenic call: inactive; negative
Test System: AMES SALMONELLA TYPHIMURIUM, Strain/Indicator: TA1535 (GST+), Metabolic Activation: NONE, Method: STANDARD PLATE
  mutagenic call: active; positive
Test System: AMES SALMONELLA TYPHIMURIUM, Strain/Indicator: TA1535, Metabolic Activation: NONE, Method: GAS EXPOSURE
  mutagenic call: active; positive
Test System: AMES SALMONELLA TYPHIMURIUM, Strain/Indicator: TA1535, Metabolic Activation: NONE, Method: STANDARD PLATE
  mutagenic call: inactive; negative
Test System: AMES SALMONELLA TYPHIMURIUM, Strain/Indicator: TA1535, Metabolic Activation: RAT, LIVER, S-9, PHENOBARBITAL AND BETA-NAPHTHOFLAVONE, Method: GAS EXPOSURE
  mutagenic call: active; positive
Test System: AMES SALMONELLA TYPHIMURIUM, Strain/Indicator: TA1537, Metabolic Activation: NONE, Method: GAS EXPOSURE
  mutagenic call: inactive; negative
Test System: AMES SALMONELLA TYPHIMURIUM, Strain/Indicator: TA1537, Metabolic Activation: RAT, LIVER, S-9, PHENOBARBITAL AND BETA-NAPHTHOFLAVONE, Method: GAS EXPOSURE
  mutagenic call: inactive; negative
Test System: AMES SALMONELLA TYPHIMURIUM, Strain/Indicator: TA2638, Metabolic Activation: NONE, Method: STANDARD PLATE
  mutagenic call: inactive; negative
Test System: CHINESE HAMSTER OVARY, Strain/Indicator: CHO-K1 (HPRT)/6-THIOGUANINE, Metabolic Activation: MOUSE, LIVER, S-100 (2.5-25%), 5 MILLIMOLAR GLUTATHIONE, Method: SUSPENSION/PLATE
  mutagenic call: active; positive
Test System: CHINESE HAMSTER OVARY, Strain/Indicator: CHO-K1 (HPRT)/6-THIOGUANINE, Metabolic Activation: MOUSE, LIVER, S-100 (15-25%), DL-BUTHIONINE-(S,R)-SULFOXIMINE, Method: SUSPENSION
  mutagenic call: inactive; negative
Test System: CHINESE HAMSTER OVARY, Strain/Indicator: CHO-K1 (HPRT)/6-THIOGUANINE, Metabolic Activation: MOUSE, LIVER, S-100 (15-35%), 5 MILLIMOLAR GLUTATHIONE, Method: SUSPENSION
  mutagenic call: active; positive
Test System: E. COLI, Strain/Indicator: K12(AB1157), Metabolic Activation: MOUSE, LIVER, S-9, Method: SUSPENSION/PLATE
  mutagenic call: active; positive
Test System: E. COLI, Strain/Indicator: K12(AB1157), Metabolic Activation: NONE, Method: SUSPENSION/PLATE
  mutagenic call: inactive; negative
Test System: E. COLI, Strain/Indicator: K12(AB1157), Metabolic Activation: RAT, LIVER, S-9, Method: SUSPENSION/PLATE
  mutagenic call: inactive; negative
Test System: E. COLI, Strain/Indicator: K12(AB1886) UVRA, Metabolic Activation: MOUSE, LIVER, S-9, Method: SUSPENSION/PLATE
  mutagenic call: inactive; negative
Test System: E. COLI, Strain/Indicator: K12(AB1886) UVRA, Metabolic Activation: NONE, Method: SUSPENSION/PLATE
  mutagenic call: inactive; negative
Test System: E. COLI, Strain/Indicator: K12(AB1886) UVRA, Metabolic Activation: RAT, LIVER, S-9, Method: SUSPENSION/PLATE
  mutagenic call: inactive; negative
Test System: E. COLI, Strain/Indicator: WP2 (PKM101), Metabolic Activation: NONE, Method: STANDARD PLATE
  mutagenic call: inactive; negative
Test System: E. COLI, Strain/Indicator: WP2 UVRA (PKM101), Metabolic Activation: NONE
  mutagenic call: active; positive
Test System: E. COLI, Strain/Indicator: WP2 UVRA (PKM101), Metabolic Activation: NONE, Method: STANDARD PLATE
  mutagenic call: inactive; negative
Test System: E. COLI, Strain/Indicator: WP2 UVRA (PKM101), Metabolic Activation: RAT, LIVER, HOMOGENATE, AROCLOR 1254
  mutagenic call: active; positive
Test System: E. COLI, Strain/Indicator: WP2 UVRA (PKM101), Metabolic Activation: RAT, LIVER, MICROSOMES, AROCLOR 1254
  mutagenic call: active; positive
Test System: E. COLI, Strain/Indicator: WP2 UVRA (PKM101), Metabolic Activation: RAT, LIVER, S-9, AROCLOR 1254
  mutagenic call: active; positive
Test System: E. COLI, Strain/Indicator: WP2 UVRA (PKM101), Metabolic Activation: RAT, LIVER, S-100, AROCLOR 1254
  mutagenic call: active; positive
Test System: E. COLI, Strain/Indicator: WP2UVRA/PKM101, Metabolic Activation: NONE, Method: GAS EXPOSURE
  mutagenic call: active; positive
Test System: E. COLI, Strain/Indicator: WP2UVRA/PKM101, Metabolic Activation: RAT, LIVER, S-9, PHENOBARBITAL AND BETA-NAPHTHOFLAVONE, Method: GAS EXPOSURE
  mutagenic call: active; positive
Test System: E. COLI, Strain/Indicator: WP2UVRA, Metabolic Activation: NONE, Method: GAS EXPOSURE
  mutagenic call: active; positive
Test System: E. COLI, Strain/Indicator: WP2UVRA, Metabolic Activation: RAT, LIVER, S-9, PHENOBARBITAL AND BETA-NAPHTHOFLAVONE, Method: GAS EXPOSURE
  mutagenic call: active; positive
Test System: Mouse lymphoma, Strain/Indicator: L5178Y (tk+/tk-), Metabolic Activation: None, Method: Suspension/plate
  mutagenic call: inactive; negative
Test System: Mouse lymphoma, Strain/Indicator: L5178Y (tk+/tk-), Metabolic Activation: Rat, Liver, S-9, Aroclor 1254, Method: Suspension/plate
  mutagenic call: inactive; negative
